# Test results reported in patent US10238667B2, “Vitamin D receptor/SMAD genomic circuit gates fibrotic response” (Salk Institute for Biological Studies, priority 2013, dated 2019).
# Tested on: primary rat HSCs
# Test: Microarray expression profiling of TGFβ1 and TGFβ1+1,25(OH)2D3-treated HSCs
# Type: cell-based
# Text: VDR Signaling Suppresses TGFβ-induced Pro-Fibrotic Genes. […] Euclidean clustering of both rows and columns using log2 transformed microarray expression data, n=2 per treatment group. […] Data represents the mean±SEM of at least three independent experiments performed in triplicate. Asterisks denote statistically significant differences (Student's unpaired t-test, *p<0.05, **p<0.01). HSCs were isolated from 10-week old male C57BL/6J mice and Wistar rats by in situ pronase, collagenase perfusion and single-step Histogenz gradient as previously reported (Hendriks et al., 1985; Knook et al., 1982). Isolated HSCs were cultured in DMEM (Mediatech) containing 20% FBS (Hyclone) on 6-well plates for 40 hours prior to end-point assays. Total RNA from primary rat or mouse HSCs was isolated using the RNeasy mini kit (Qiagen) according to standard protocols. RNA integrity and quality was assessed using the Agilent Bioanalyzer and prepared for hybridization to Illumina rat or mouse gene expression arrays according to standard Illumina protocols. Feature extraction was performed using the Illumina GenomeStudio software. Normalization and identification of differentially expressed genes from biological duplicates was performed using […] at http://sasquatch.ucsd.edu/vampire/.
structure (smiles),measurement,setting,value
"C=C1/C(=C\C=C2/CCC[C@]3(C)C([C@H](C)CCCC(C)(C)O)CC[C@@H]23)C[C@@H](O)C[C@@H]1O (stereo partly drawn) [1,25(OH)2D3, 1α,25 dihydroxyvitamin D3]",TGFβ1 induced genes,"1,25(OH)2D3 co-treatment with TGFβ1",considerable repression
same,Mmp13 VitD + TGF β Avg Signal,"TGFβ1 1 ng/ml + 1,25(OH)2D3 100 nM, 24 h, Control 150.8, TGFβ 202.4",180.0
same,Col4a2 VitD + TGF β Avg Signal,"TGFβ1 1 ng/ml + 1,25(OH)2D3 100 nM, 24 h, Control 162.6, TGFβ 225.3",166.2
same,Itga7 VitD + TGF β Avg Signal,"TGFβ1 1 ng/ml + 1,25(OH)2D3 100 nM, 24 h, Control 170.2, TGFβ 202.7",161.9
same,Col16a1 VitD + TGF β Avg Signal,"TGFβ1 1 ng/ml + 1,25(OH)2D3 100 nM, 24 h, Control 175.4, TGFβ 237.2",173.3
same,Col7a1 VitD + TGF β Avg Signal,"TGFβ1 1 ng/ml + 1,25(OH)2D3 100 nM, 24 h, Control 185.8, TGFβ 229.6",190.3
same,Itga2 VitD + TGF β Avg Signal,"TGFβ1 1 ng/ml + 1,25(OH)2D3 100 nM, 24 h, Control 188.5, TGFβ 257.9",204.2
same,LOC366205 VitD + TGFbeta AVG signal,"TGFβ1 1 ng/ml + 1,25(OH)2D3 100 nM, 24 h, Control 193.2, TGFβ 926.6",140.7
same,Tgfb3 VitD + TGF β Avg Signal,"TGFβ1 1 ng/ml + 1,25(OH)2D3 100 nM, 24 h, Control 226.4, TGFβ 288.5",178.6
same,LOC499272 VitD + TGFbeta AVG signal,"TGFβ1 1 ng/ml + 1,25(OH)2D3 100 nM, 24 h, Control 234.2, TGFβ 620",140.2
same,LOC497796 VitD + TGFbeta AVG signal,"TGFβ1 1 ng/ml + 1,25(OH)2D3 100 nM, 24 h, Control 240.8, TGFβ 4341",859
same,Col15a1 VitD + TGF β Avg Signal,"TGFβ1 1 ng/ml + 1,25(OH)2D3 100 nM, 24 h, Control 257.9, TGFβ 616.4",396.9
same,Ly49si1 VitD + TGFbeta AVG signal,"TGFβ1 1 ng/ml + 1,25(OH)2D3 100 nM, 24 h, Control 261.1, TGFβ 622.8",134.7
same,Tgfbr1 VitD + TGF β Avg Signal,"TGFβ1 1 ng/ml + 1,25(OH)2D3 100 nM, 24 h, Control 277.1, TGFβ 365.1",331.9
same,Mmp7 VitD + TGF β Avg Signal,"TGFβ1 1 ng/ml + 1,25(OH)2D3 100 nM, 24 h, Control 277.3, TGFβ 469.3",164.9
same,LOC499100 VitD + TGFbeta AVG signal,"TGFβ1 1 ng/ml + 1,25(OH)2D3 100 nM, 24 h, Control 281.2, TGFβ 594.6",154.4
same,LOC305269 VitD + TGFbeta AVG signal,"TGFβ1 1 ng/ml + 1,25(OH)2D3 100 nM, 24 h, Control 288.8, TGFβ 687.8",170.6
same,Tgfbr2 VitD + TGF β Avg Signal,"TGFβ1 1 ng/ml + 1,25(OH)2D3 100 nM, 24 h, Control 289.0, TGFβ 347.6",358.9
same,Stab1_predict VitD + TGFbeta AVG signal,"TGFβ1 1 ng/ml + 1,25(OH)2D3 100 nM, 24 h, Control 303.7, TGFβ 1141.2",204.7
same,Mmp19 VitD + TGF β Avg Signal,"TGFβ1 1 ng/ml + 1,25(OH)2D3 100 nM, 24 h, Control 319.6, TGFβ 516.3",308.7
same,Cdh1 VitD + TGFbeta AVG signal,"TGFβ1 1 ng/ml + 1,25(OH)2D3 100 nM, 24 h, Control 337.9, TGFβ 553.9",126.8
same,Dcir2 VitD + TGFbeta AVG signal,"TGFβ1 1 ng/ml + 1,25(OH)2D3 100 nM, 24 h, Control 426.1, TGFβ 842.9",184.9
same,Cysltr1 VitD + TGFbeta AVG signal,"TGFβ1 1 ng/ml + 1,25(OH)2D3 100 nM, 24 h, Control 429.3, TGFβ 801.8",183.5
same,LOC501570 VitD + TGFbeta AVG signal,"TGFβ1 1 ng/ml + 1,25(OH)2D3 100 nM, 24 h, Control 429.6, TGFβ 887.6",192.5
same,Tmem26_pred VitD + TGFbeta AVG signal,"TGFβ1 1 ng/ml + 1,25(OH)2D3 100 nM, 24 h, Control 457.8, TGFβ 912.3",237.3
same,Pirb VitD + TGFbeta AVG signal,"TGFβ1 1 ng/ml + 1,25(OH)2D3 100 nM, 24 h, Control 462.9, TGFβ 913.7",171.1
same,LOC366608 VitD + TGFbeta AVG signal,"TGFβ1 1 ng/ml + 1,25(OH)2D3 100 nM, 24 h, Control 469.9, TGFβ 892.8",203.6
same,Col1a1 VitD + TGF β Avg Signal,"TGFβ1 1 ng/ml + 1,25(OH)2D3 100 nM, 24 h, Control 474.2, TGFβ 1429.1",557.9
same,Loxl2 VitD + TGF β Avg Signal,"TGFβ1 1 ng/ml + 1,25(OH)2D3 100 nM, 24 h, Control 495.5, TGFβ 966.5",597.0
same,Timp2 VitD + TGF β Avg Signal,"TGFβ1 1 ng/ml + 1,25(OH)2D3 100 nM, 24 h, Control 500.7, TGFβ 913.0",751.7
same,Col3a1 VitD + TGF β Avg Signal,"TGFβ1 1 ng/ml + 1,25(OH)2D3 100 nM, 24 h, Control 513.9, TGFβ 965.1",287.6
same,Col6a3 VitD + TGF β Avg Signal,"TGFβ1 1 ng/ml + 1,25(OH)2D3 100 nM, 24 h, Control 526.5, TGFβ 848.2",442.6
same,Loxl1 VitD + TGF β Avg Signal,"TGFβ1 1 ng/ml + 1,25(OH)2D3 100 nM, 24 h, Control 537.2, TGFβ 1045.1",560.1
same,Ly49si2 VitD + TGFbeta AVG signal,"TGFβ1 1 ng/ml + 1,25(OH)2D3 100 nM, 24 h, Control 538.9, TGFβ 1177",256
same,LOC361699 VitD + TGFbeta AVG signal,"TGFβ1 1 ng/ml + 1,25(OH)2D3 100 nM, 24 h, Control 557.1, TGFβ 1013.7",263.7
same,Mmp10 VitD + TGF β Avg Signal,"TGFβ1 1 ng/ml + 1,25(OH)2D3 100 nM, 24 h, Control 561.7, TGFβ 1042.3",764.6
same,Col8a1 VitD + TGF β Avg Signal,"TGFβ1 1 ng/ml + 1,25(OH)2D3 100 nM, 24 h, Control 574.2, TGFβ 1285.9",773.5
same,Ccl12_predicte VitD + TGFbeta AVG signal,"TGFβ1 1 ng/ml + 1,25(OH)2D3 100 nM, 24 h, Control 597, TGFβ 1047.9",191.1
same,Col5a1 VitD + TGF β Avg Signal,"TGFβ1 1 ng/ml + 1,25(OH)2D3 100 nM, 24 h, Control 611.1, TGFβ 1418.9",673.0
same,LOC304349 VitD + TGFbeta AVG signal,"TGFβ1 1 ng/ml + 1,25(OH)2D3 100 nM, 24 h, Control 664, TGFβ 1503.8",211.1
same,Tgfb2 VitD + TGF β Avg Signal,"TGFβ1 1 ng/ml + 1,25(OH)2D3 100 nM, 24 h, Control 814.7, TGFβ 1308.4",388.0
same,LOC498751 VitD + TGFbeta AVG signal,"TGFβ1 1 ng/ml + 1,25(OH)2D3 100 nM, 24 h, Control 827.8, TGFβ 2611.8",516.6
same,Emr1 VitD + TGFbeta AVG signal,"TGFβ1 1 ng/ml + 1,25(OH)2D3 100 nM, 24 h, Control 831.7, TGFβ 1893.5",319.1
same,LOC502904 VitD + TGFbeta AVG signal,"TGFβ1 1 ng/ml + 1,25(OH)2D3 100 nM, 24 h, Control 858.7, TGFβ 1425.7",213.6
same,Itga5 VitD + TGF β Avg Signal,"TGFβ1 1 ng/ml + 1,25(OH)2D3 100 nM, 24 h, Control 880.0, TGFβ 1227.3",1158.1
same,Cacnb3 VitD + TGFbeta AVG signal,"TGFβ1 1 ng/ml + 1,25(OH)2D3 100 nM, 24 h, Control 906.9, TGFβ 2511.6",415.9
same,Bmp2 VitD + TGFbeta AVG signal,"TGFβ1 1 ng/ml + 1,25(OH)2D3 100 nM, 24 h, Control 954.6, TGFβ 1628.6, listed as VitD",305
same,Gas7 VitD + TGFbeta AVG signal,"TGFβ1 1 ng/ml + 1,25(OH)2D3 100 nM, 24 h, Control 1039.2, TGFβ 4083.5",832.8
same,Slamf9_predic VitD + TGFbeta AVG signal,"TGFβ1 1 ng/ml + 1,25(OH)2D3 100 nM, 24 h, Control 1044.7, TGFβ 1762.9",417.9
same,Itga4 VitD + TGF β Avg Signal,"TGFβ1 1 ng/ml + 1,25(OH)2D3 100 nM, 24 h, Control 1128.4, TGFβ 1464.4",380.6
same,LOC498741 VitD + TGFbeta AVG signal,"TGFβ1 1 ng/ml + 1,25(OH)2D3 100 nM, 24 h, Control 1156.2, TGFβ 1908.8",314.1
same,Hod VitD + TGFbeta AVG signal,"TGFβ1 1 ng/ml + 1,25(OH)2D3 100 nM, 24 h, Control 1297, TGFβ 2520.2",495.9
same,LOC502907 VitD + TGFbeta AVG signal,"TGFβ1 1 ng/ml + 1,25(OH)2D3 100 nM, 24 h, Control 1399.7, TGFβ 2318.7",241.9
same,Ptprc VitD + TGFbeta AVG signal,"TGFβ1 1 ng/ml + 1,25(OH)2D3 100 nM, 24 h, Control 1582.3, TGFβ 2387",569.1
same,Itgam VitD + TGF β Avg Signal,"TGFβ1 1 ng/ml + 1,25(OH)2D3 100 nM, 24 h, Control 1689.7, TGFβ 2297.0",658.0
same,Col4a1 VitD + TGF β Avg Signal,"TGFβ1 1 ng/ml + 1,25(OH)2D3 100 nM, 24 h, Control 1708.1, TGFβ 2261.0",1315.2
same,Chst1_predict VitD + TGFbeta AVG signal,"TGFβ1 1 ng/ml + 1,25(OH)2D3 100 nM, 24 h, Control 1813.1, TGFβ 4284.5",337.6
same,Dsipi VitD + TGFbeta AVG signal,"TGFβ1 1 ng/ml + 1,25(OH)2D3 100 nM, 24 h, Control 1943.2, TGFβ 4575.5",1152
same,Ccr5 VitD + TGFbeta AVG signal,"TGFβ1 1 ng/ml + 1,25(OH)2D3 100 nM, 24 h, Control 2069.5, TGFβ 4680.9",362.3
same,Itgav VitD + TGF β Avg Signal,"TGFβ1 1 ng/ml + 1,25(OH)2D3 100 nM, 24 h, Control 2145.1, TGFβ 4760.5",2417.2
same,Mmp9 VitD + TGF β Avg Signal,"TGFβ1 1 ng/ml + 1,25(OH)2D3 100 nM, 24 h, Control 2153.3, TGFβ 4197.3",2676.4
same,Col5a2 VitD + TGF β Avg Signal,"TGFβ1 1 ng/ml + 1,25(OH)2D3 100 nM, 24 h, Control 2181.0, TGFβ 3452.2",1696.8
same,Lox VitD + TGF β Avg Signal,"TGFβ1 1 ng/ml + 1,25(OH)2D3 100 nM, 24 h, Control 2260.8, TGFβ 7481.1",4219.9
same,LOC499356 VitD + TGFbeta AVG signal,"TGFβ1 1 ng/ml + 1,25(OH)2D3 100 nM, 24 h, Control 2562.8, TGFβ 3888.4",352.7
same,Fchsd2_predic VitD + TGFbeta AVG signal,"TGFβ1 1 ng/ml + 1,25(OH)2D3 100 nM, 24 h, Control 2632.5, TGFβ 7594.5",1565
same,Tgfb1 VitD + TGF β Avg Signal,"TGFβ1 1 ng/ml + 1,25(OH)2D3 100 nM, 24 h, Control 2922.5, TGFβ 5480.4",4391.0
same,Ms4a4a_predi VitD + TGFbeta AVG signal,"TGFβ1 1 ng/ml + 1,25(OH)2D3 100 nM, 24 h, Control 3327, TGFβ 14356",810.7
same,Pcsk1 VitD + TGFbeta AVG signal,"TGFβ1 1 ng/ml + 1,25(OH)2D3 100 nM, 24 h, Control 3330.8, TGFβ 6754.6",912.4
same,Ms4a6a_predi VitD + TGFbeta AVG signal,"TGFβ1 1 ng/ml + 1,25(OH)2D3 100 nM, 24 h, Control 3823.9, TGFβ 7658.8",1696
